Reference: patent publication US10344064B2, “Engineered potent cytotoxic stapled BH3 peptides” (The Trustees of Princeton University, priority 2012, dated 2019)
Entries after “also recorded” stand apart in the source; their conditions may differ. Read-outs that look alike come from different tables or passages of the source. Blank lines part the entries; values can stand above or below the compound they belong to. Bridges are numbered along the chain shown (N, C = ends). Where no end group is shown, it is not given here. [ ]: non-standard residue; d: D form. S5 = C=CCCC[C@](C)(N)C(=O)O

How the values were obtained:
MCF7 cells = assay: MTT cytotoxicity assay of stapled peptides, MCF7; assay type: cell-based, human; conditions: for cytotoxicity toward MCF7 cells (in words): stapled peptides, at the concentrations tested
Procedure: (§1) HeLa, PC3, MCF7 and MDA231 cell lines were used to determine IC50 of each stapled peptide. All cells were cultured at 37° C. supplemented with 5% CO2. HeLa cells and PC3 cells were maintained in DMEM and RPMI 1640 media, respectively, supplemented with 10% FBS, 50 units/mL penicillin, and 50 μg/mL streptomycin. MCF7 cells were maintained in DME/F12 media with 2% FBS, 10 μg/ml insulin, and 50 μg/ml gentamicin. MDA-MB-231 cells were maintained in DME/F12 media supplemented with 10% FBS, 10 μg/ml insulin, and 50 μg/ml gentamicin. The cytotoxicity of stapled peptides was determined using an MTT (3-(4,5-Dimethylthiazol-2-yl)-2,5-diphenyltetrazolium bromide assay (Sigma). Cells were plated at a density of 1.5×10^4 cells per well in a 96-well plate. After 24 hours, the medium was replaced with serum-free medium containing stapled peptides. Serum was added after 4 hours, and cells were incubated for an additional 44 hours. After this incubation, 0.5 mg/ml of MTT was added to each well and incubated for 4 hours. The medium was aspirated and 200 μL of dimethyl sulfoxide (DMSO) was added to each well to solubilize the formazan crystals. The absorbance was measured at 570 nm with 690 nm as an internal reference using a GloMax-Multi Detection System (Promega). Experiments were performed three times independently with biological replicates. A four-parameter model was used to fit the experimental data and extract the IC50 value from killing assays, where log [ ] was the log value of the stapled peptide concentration. [formula] During fitting, “top” was always fixed at 100% viability, while “bottom,” log [IC50] and Hill slope were allowed to vary. In all cases, “bottom” came out to be 0. The R^2 values of all fits were above 0.9, while the majority was above 0.95.

HeLa cells [1] = assay type: cell-based, human
Procedure: as §1

PC3 cells = assay type: cell-based, human
Procedure: as §1

MDA231 cells = assay type: cell-based, human
Procedure: as §1

Bcl-xL = molecular target: T1, Bcl-xL (Homo sapiens, UniProt Q07817); assay: Apparent Kd by E. coli surface display and flow cytometry, Bcl-xL; assay type: binding; conditions: for increase in apparent affinity toward Bcl-xL: relative to wild-type Bim 14-mer; for binding to Bcl-xL (in words): compared with wild-type peptide
T1 construct: made in house; host or cells: E. coli BL21
T1 sequence (Q07817 whole entry): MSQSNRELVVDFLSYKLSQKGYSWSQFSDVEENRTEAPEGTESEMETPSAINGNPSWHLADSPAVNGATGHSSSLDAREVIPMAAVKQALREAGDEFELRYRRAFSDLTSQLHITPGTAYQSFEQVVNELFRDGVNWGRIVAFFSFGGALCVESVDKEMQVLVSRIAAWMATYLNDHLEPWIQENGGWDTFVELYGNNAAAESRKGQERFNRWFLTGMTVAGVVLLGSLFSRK
Procedure: (§2) All binding assays were performed using MC1061 strain. Briefly, a 5 mL culture of a library sample or individual variant was grown to OD600˜0.6, and induced with arabinose (0.2%) at RT for 2.5 hours. Cells were pelleted (1 mL culture, 6000 rpm, 5 min) and resuspended in 1 mL PBS. A portion of the cell suspension (50 μL) was mixed with the desired concentration of pro-survival protein to a total volume of 500 μL. The mixture was allowed to rotate at room temperature for 1 hour for equilibrium binding. The cells were pelleted again (6000 rpm, 20 min), resuspended with 100 μL of 50 nM streptavidin-phycoerythrin (SAPE), and incubated on ice in the dark for 30 min. After a final centrifugation, the cell pellets were stored on ice and resuspended in 2 mL of PBS for flow cytometry measurements. A Partec CyFlow ML Flow Cytometer equipped with a 488 nm laser was used to analyze the cells. A FACSVantage SE cell sorter was used for cell sorting in single cell mode.
(§3) A two parameter model was used to extract apparent binding affinity (Kd) from flow cytometry binding experiments.

A1 = assay: Apparent Kd by E. coli surface display and flow cytometry, A1; assay type: binding; conditions: for Kd: Table 3, apparent Kd, unstapled 14-mer displayed on E. coli (eCPX); for affinity improvement toward A1: relative to wild-type Bim 14-mer
Procedure: as §2, §3

[2] = tested on: HeLa, PC3, MCF7 and MDA231 cell lines; assay: MTT cytotoxicity assay of stapled peptides, all four cancer cell lines; assay type: cell-based, human; conditions: for cytotoxicity against the four cancer cell lines (in words): stapled pseudo-wild-type peptide
Procedure: as §1

HeLa = conditions: cisplatin, values from reference 33-36; cited from earlier work
MCF7 = conditions: cisplatin, values from reference 33-36; cited from earlier work
MDA231 = conditions: cisplatin, values from reference 33-36; cited from earlier work
PC3 = conditions: cisplatin, values from reference 33-36; cited from earlier work
Mcl-1 = molecular target: T2, Mcl-1 (Homo sapiens, UniProt Q07820); assay: Apparent Kd by E. coli surface display and flow cytometry, Mcl-1; assay type: binding
T2 construct: made in house; host or cells: E. coli BL21
T2 sequence (Q07820 whole entry): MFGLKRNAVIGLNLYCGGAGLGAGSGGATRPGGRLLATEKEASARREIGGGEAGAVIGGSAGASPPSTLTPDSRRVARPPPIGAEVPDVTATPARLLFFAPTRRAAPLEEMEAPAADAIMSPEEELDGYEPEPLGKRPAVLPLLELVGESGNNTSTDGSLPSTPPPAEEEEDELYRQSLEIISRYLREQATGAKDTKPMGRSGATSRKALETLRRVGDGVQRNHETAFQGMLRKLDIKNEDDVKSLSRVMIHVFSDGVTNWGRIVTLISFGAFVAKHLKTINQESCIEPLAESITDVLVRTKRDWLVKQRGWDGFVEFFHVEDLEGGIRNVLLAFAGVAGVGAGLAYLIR
Procedure: as §2, §3

Bcl-2 = molecular target: T3, Bcl-2 (Homo sapiens, UniProt P10415); assay: Apparent Kd by E. coli surface display and flow cytometry, Bcl-2; assay type: binding; conditions: compared with wild-type peptide
T3 construct: made in house; host or cells: E. coli BL21
T3 sequence (P10415 whole entry): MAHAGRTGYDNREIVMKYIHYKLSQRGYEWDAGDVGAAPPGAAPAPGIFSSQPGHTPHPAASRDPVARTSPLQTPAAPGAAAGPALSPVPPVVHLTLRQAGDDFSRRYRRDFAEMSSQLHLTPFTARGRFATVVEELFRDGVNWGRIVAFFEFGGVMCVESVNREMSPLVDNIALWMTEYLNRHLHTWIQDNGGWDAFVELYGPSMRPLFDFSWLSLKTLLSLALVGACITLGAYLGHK
Procedure: as §2, §3

Bcl-w = molecular target: T4, Bcl-w (Homo sapiens, UniProt Q92843); assay: Apparent Kd by E. coli surface display and flow cytometry, Bcl-w; assay type: binding; conditions: compared with wild-type peptide
T4 construct: made in house; host or cells: E. coli BL21
T4 sequence (Q92843 1-193): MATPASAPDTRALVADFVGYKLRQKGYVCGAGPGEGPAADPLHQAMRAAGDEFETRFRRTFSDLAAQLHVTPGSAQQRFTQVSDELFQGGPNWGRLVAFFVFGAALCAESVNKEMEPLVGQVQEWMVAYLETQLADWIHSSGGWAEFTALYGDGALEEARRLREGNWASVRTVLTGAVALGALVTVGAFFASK
Procedure: as §2, §3

HeLa cells [3] = assay: TUNEL assay; assay type: cell-based, human; conditions: 5 μM, 5 hours
Procedure: (§4) To study the uptake of fluorescein-labeled M2-4 stapled peptide (Fl-M2-4), HeLa cells were cultured in DMEM with 10% FBS and antibiotics as described above. The peptide was added to a final concentration of 5 μM in fresh DMEM without serum supplementation. Cellular uptake of FI-M2-4 was visualized using a Hamamatsu Orca CCD camera attached to a Nikon Eclipse Ti microscope after 2.5 hours of incubation. Cells were fixed using 4% paraformaldehyde and counterstained with Hoechst 33342. For the TUNEL assay, HeLa cells were plated on a fibronectin-treated coverslip and incubated with 5 μM unlabeled M2-4 peptide for 5 hours. The cells were then fixed using 4% paraformaldehyde and permeabilized with 0.25% Triton X-100 in PBS. The TUNEL assay (Click-it Alexa-Fluor 594, Invitrogen) was carried out according to the manufacturer's recommendations including counterstaining cell nuclei with Hoechst 33342. Images were acquired using a Hamamatsu Orca CCD camera attached to a Nikon Eclipse Ti microscope. All images were processed with ImageJ software.

HeLa cells [4] = assay: Peptide uptake by fluorescence microscopy; assay type: cell-based, human; conditions: 5 μM, imaged after 2.5 hours
Procedure: as §4

[5] = Table 2, apparent Kd, unstapled 14-mer displayed on E. coli (eCPX), read-out: Kd vs. Mcl-1
[6] = Table 3, apparent Kd, unstapled 14-mer displayed on E. coli (eCPX), read-out: Kd (nM) Mcl-1

Compound: CC[C@H](C)[C@H](NC(=O)[C@@H](N)Cc1c[nH]c2ccccc12)C(=O)N[C@@H](C)C(=O)N[C@@H](CCC(N)=O)C(=O)N[C@@H](CCC(N)=O)C(=O)N[C@@H](CC(C)C)C(=O)N[C@@H](CCCNC(=N)N)C(=O)N[C@@]1(C)CCCC=CCCC[C@@](C)(C(=O)N[C@@H](Cc2ccccc2)C(=O)N[C@@H](CC(N)=O)C(N)=O)NC(=O)[C@H](CC(=O)O)NC(=O)CNC(=O)[C@H]([C@@H](C)CC)NC1=O (single isomer, unassigned) [stapled E151Q]
IC50 [2]: 10 to 150 µM
cytotoxicity against the four cancer cell lines (in words) [2]: only modest cytotoxicity; also recorded: measurable but modest cytotoxicity
cytotoxicity against the four cancer cell lines (in words) ([2]; listed as pseudo-wild-type Bim peptide): only modest cytotoxicity

Compound: N.N.[Cl][Pt][Cl] [Cisplatin, cisplatin]
IC50 (HeLa): 1.34 µM
IC50 (MCF7): 5 µM
IC50 (MDA231): ~10 µM
IC50 (PC3): 5.6 µM

Compound: WIAQELRRIGDEFN [WT, reference compound]
Kd (A1): 26.9 nM

Compound: stapled M2-4: stapled version of M2-4; positions 8 and 12 replaced by olefinic amino acids and crosslinked (WLAQLLR[S5]IGD[S5]IN-NH2; staple 8-12)
apoptosis / DNA fragmentation by TUNEL (in words) (HeLa cells [3]): DNA fragmentation
apoptosis / DNA fragmentation by TUNEL (in words) (HeLa cells [3]; listed as M2-4 stapled peptide): causes apoptosis
cellular uptake (in words) (HeLa cells [4]): taken up

The next lines start with results.

IC50 (HeLa cells [1]): 150 µM
IC50 (PC3 cells): 9.5 µM
IC50 (MDA231 cells): 20 µM
increase in apparent affinity toward Bcl-xL (Bcl-xL): 5 fold
Compound: CC[C@H](C)[C@H](NC(=O)[C@@H](N)Cc1c[nH]c2ccccc12)C(=O)N[C@@H](C)C(=O)N[C@@H](CCC(N)=O)C(=O)N[C@@H](CCC(N)=O)C(=O)N[C@@H](CC(C)C)C(=O)N[C@@H](CCCNC(=N)N)C(=O)N[C@@]1(C)CCCC=CCCC[C@@](C)(C(=O)N[C@@H](Cc2ccccc2)C(=O)N[C@@H](CC(N)=O)C(N)=O)NC(=O)[C@H](CC(=O)O)NC(=O)CNC(=O)[C@H]([C@@H](C)CC)NC1=O (single isomer, unassigned) [E151Q]
IC50 (MCF7 cells): 35.7 µM
Kd (A1): 29.6 nM

IC50 (HeLa cells [1]): 6.1 µM
IC50 (PC3 cells): 4.7 µM
IC50 (MDA231 cells): 3.7 µM
Kd (Mcl-1; [5]): 5.8 nM
Kd (Mcl-1; [6]): 5.8 nM
Kd (Mcl-1; displayed unstapled 14-mer, read-out: apparent Kd against Mcl-1): 5.8 nM
increase in apparent affinity toward Mcl-1 (Mcl-1; relative to wild-type Bim 14-mer): 6 fold
binding to Bcl-2 (in words) (Bcl-2): lost the ability to bind
binding to Bcl-xL (in words) (Bcl-xL): lost the ability to bind
binding to Bcl-w (in words) (Bcl-w): lost the ability to bind
Compound: CC[C@H](C)[C@@H]1NC(=O)[C@@](C)(NC(=O)[C@H](CCCNC(=N)N)NC(=O)[C@H](CC(C)C)NC(=O)[C@H](CC(C)C)NC(=O)[C@H](CCC(N)=O)NC(=O)[C@H](C)NC(=O)[C@@H](NC(=O)[C@@H](N)Cc2c[nH]c3ccccc23)C(C)C)CCCC=CCCC[C@@](C)(C(=O)N[C@H](C(=O)N[C@@H](CC(N)=O)C(N)=O)C(C)C)NC(=O)[C@H](CC(=O)O)NC(=O)CNC1=O [M2-2, Trp-Val-Ala-Gln-Leu-Leu-Arg-Arg-Ile-Gly-Asp-Glu-Val-Asn]
IC50 (MCF7 cells): 5.7 µM
IC50 [2]: < 6.2 µM
Kd (A1): 9.99 nM
affinity improvement toward A1 (A1): 3 fold

decrease in IC50 relative to the pseudo-wild-type peptide (HeLa cells [1]; HeLa cells, stapled peptides): ~150 fold
Kd (Mcl-1; [5]): 9.85 nM
Kd (Mcl-1; [6]): 9.85 nM
binding to Bcl-2 (in words) (Bcl-2): maintaining wild-type affinity
binding to Bcl-xL (in words) (Bcl-xL): maintaining wild-type affinity
binding to Bcl-w (in words) (Bcl-w): maintaining wild-type affinity
Compound: CC[C@H](C)[C@@H]1NC(=O)[C@@](C)(NC(=O)[C@H](CCCNC(=N)N)NC(=O)[C@H](CC(C)C)NC(=O)[C@H](CC(C)C)NC(=O)[C@H](CCC(N)=O)NC(=O)[C@H](C)NC(=O)[C@H](CC(C)C)NC(=O)[C@@H](N)Cc2c[nH]c3ccccc23)CCCC=CCCC[C@@](C)(C(=O)N[C@H](C(=O)N[C@@H](CC(N)=O)C(N)=O)[C@@H](C)CC)NC(=O)[C@H](CC(=O)O)NC(=O)CNC1=O [M2-4, Trp-Leu-Ala-Gln-Leu-Leu-Arg-Arg-Ile-Gly-Asp-Glu-Ile-Asn]
IC50 [2]: < 6.2 µM
Kd (A1): 4.18 nM
affinity improvement toward A1 (A1): 6 fold

IC50 (HeLa cells [1]): 51.3 µM
IC50 (PC3 cells): 17.9 µM
IC50 (MDA231 cells): 10.5 µM
increase in apparent affinity toward Bcl-xL (Bcl-xL): 25 fold
Compound: CC(C)C[C@H](NC(=O)[C@H](Cc1c[nH]c2ccccc12)NC(=O)[C@H](CCC(N)=O)NC(=O)[C@H](C)NC(=O)[C@@H](NC(=O)[C@@H](N)Cc1c[nH]c2ccccc12)C(C)C)C(=O)N[C@@H](CCCNC(=N)N)C(=O)N[C@@]1(C)CCCC=CCCC[C@@](C)(C(=O)N[C@@H](Cc2ccccc2)C(=O)N[C@@H](CC(N)=O)C(N)=O)NC(=O)[C@H](CC(=O)O)NC(=O)CNC(=O)[C@H](Cc2c[nH]c3ccccc23)NC1=O [X2-3, Trp-Val-Ala-Gln-Trp-Leu-Arg-Arg-Trp-Gly-Asp-Glu-Phe-Asn]
cytotoxicity toward MCF7 cells (in words) (MCF7 cells): no cytotoxicity
Kd (A1): 30.2 nM

IC50 (HeLa cells [1]): 55 µM
IC50 (PC3 cells): 14.9 µM
IC50 (MDA231 cells): 18.3 µM
Compound: CC(C)C[C@H](NC(=O)[C@H](CCC(N)=O)NC(=O)[C@H](C)NC(=O)[C@H](CC(C)C)NC(=O)[C@@H](N)Cc1c[nH]c2ccccc12)C(=O)N[C@@H](CC(C)C)C(=O)N[C@@H](CCCNC(=N)N)C(=O)N[C@@]1(C)CCCC=CCCC[C@@](C)(C(=O)N[C@@H](Cc2ccccc2)C(=O)N[C@@H](CC(N)=O)C(N)=O)NC(=O)[C@H](CC(=O)O)NC(=O)CNC(=O)[C@H](Cc2ccc(O)cc2)NC1=O [X2-8, Trp-Leu-Ala-Gln-Leu-Leu-Arg-Arg-Tyr-Gly-Asp-Glu-Phe-Asn]
cytotoxicity toward MCF7 cells (in words) (MCF7 cells): no cytotoxicity
Kd (A1): 40.5 nM
